Here are results for two compounds from patent US9957270B2, “Fused pyrimidine-based hydroxamate derivatives” (Agency for Science, Technology and Research, priority 2014, dated 2018).

For data set [1], the system named is MV-4-11 cells. In words: Caspase activity assay, MV-4-11 cells. The format is cell-based, human. The following applies: Homo sapiens, MV4-11, 24 h, read-out: EC50 induction of caspase activity. The method, then: Cells are cultivated and treated with test compounds in 96-well plates as described in the above Cell Culture and Anti-Proliferative Assays section. […] The incubation time can be extended up to overnight (18 h) if the Caspase activity is low. Staurosporine is used as positive control.
Y Axis is expressed as Mean±SD if applicable.

In the next data set the test system is HepG2 xenograft. The following applies: NCr nude mice, 150 mg/kg oral.
Another data set has as its system MV4-11 tumors. The following applies: EX2 IV 50, IP 100, PO 150 mg/kg; EX78 IV 25, PO 100 mg/kg; Western blot of tumors. For orientation: In western blotting, separated proteins are transferred to a membrane and probed.
Data set [2] is described as follows: Microsomal stability, rat liver microsomes. The following applies: rat, microsomes, 0.75 h, 5 μM, pH 7.4. The method, then:
(§1) GIBIO pooled human liver microsomes (HLM) (Cat # HMMCPL), mouse liver microsomes (MLM) (Cat # BCMCPL), and rat liver microsomes (RLM) (Cat # RTMCPL) were purchased from Life Technologies. […] Samples are incubated for 30, 45, or 60 min. Reaction is terminated with ice-cold acetonitrile 0.3% formic acid. Samples are subsequently centrifuged at 4° C. for 15 min at 20,000×g. The supernatant is analysed by LC-MS.
(§2) Compound in vitro metabolic stability was assayed using liver microsomes (LM) at 0.5 mg/mL of proteins, incubated for 30 min (mouse, MLM), 45 min (rat, RLM), 30 or 45 min (human, HLM). % of remaining parent compound was measured using LC-MS.
(In general: Liver microsomes are vesicles of endoplasmic reticulum, rich in cytochrome P450 enzymes.)

The test system of the next data set is HuH-7 xenograft. Particulars: HuH-7, NCr nude mice, 150 mg/kg oral.
Data set [3] in a line: Microsomal stability, human liver microsomes. Particulars: human, microsomes, 0.75 h, 5 μM, pH 7.4. The method, then: as §1, §2
For another data set, the system named is NCI-H460 xenograft. Particulars: CB17 scid mice, 150 mg/kg oral.
The test system of data set [4] is MV-4-11 cells. The data set can be described thus: Cell viability/cytotoxicity assay (CytoTox-Glo), MV-4-11 cells. Particulars: Homo sapiens, MV4-11, 48 h, read-out: cell death potency EC50. The format is cell-based, human. The method, then:
Cells are cultivated and treated with test compounds in 96-well plates as described in the above Cell Culture and Anti-Proliferative Assays section, the content of dead cells and viable cells are measured using CytoTox-Glo™ Cytotoxicity Assay kit (Promega) per manufacture's protocol. Briefly, CytoTox-Glo™ Cytotoxicity Assay Reagent (48 μL/well) is added to the cells in 96-well plate and the luminescent signals are recorded using a BioTek Synergy H4 reader, then Lysis Reagent (48 μL/well) is added and the luminescent signals derived from both dead and viable cells are recorded. Viability can be calculated by subtracting the luminescent signal resulting from experimental cell death from total luminescent values. Staurosporine is used as positive control.
Fold of cell death of treated vs untreated was monitored at different time points. […] Y Axis is expressed as Mean±SD if applicable.

A short description of data set [5]: Microsomal stability, mouse liver microsomes. Particulars: mouse, microsomes, 0.5 h, 5 μM, pH 7.4. The protocol: as §1, §2
The subject of data set [6] is histone 3 (Lys 9) and α-tubulin acetylation (HDACs) in PC-3 cells. The data set can be described thus: Western blot, acetylation of histone 3 (Lys 9) and α-tubulin in PC-3 cells. The following applies: 24 h, 1 or 10 μM. In kind it is cell-based, human. The method, then:
Proteins in cell lysates are resolved by SDS-PAGE and transferred to PVDF and probed with appropriate primary and secondary antibodies. […] Representative Western blot images are shown in FIG. 15 and analyzed results are presented by FIGS. 17 to 20.
PC-3 cells were treated with test compounds at the following concentrations (all contain 0.1% DMSO) for 24 h at 37° C., and then processed according to section of Western Blot Analysis.
The graph represents results from two Western Blot analyses. […] Vehicle DMSO (0.1%) was used as blank control, and its acH3 level was normalized to 1. Y Axis is expressed as Mean±SD if applicable.
Vehicle DMSO (0.1%) as blank control, and its acetylation level was normalized to 1. Y Axis is expressed as Mean±SD if applicable.

A further data set relates to PC-3. In words: Anti-proliferative assay (cellular IC50), PC-3. Particulars: read-out: In Vitro Cellular IC50 PC-3; Table 4; 72 h.
Data set [7] addresses HDAC (HeLa nuclear extracts). In words: HDAC enzyme assay, HeLa nuclear extracts. The following applies: read-out: In Vitro Enzymatic IC50 HDAC (HeLa).
The next data set concerns MV-4-11. The following applies: read-out: In Vitro Cellular IC50 MV-4-11; Table 4; 72 h.

As usually defined, the EC50 is the concentration at which the effect is half-maximal. The IC50 is the concentration that inhibits the measured activity by half.

With `O=C(CCCCCCn1cnc2c(N3CCOCC3)nc(-c3cccc(CO)c3)nc21)NO` [compound 2, N-hydroxy-7-(2-(3-(hydroxymethyl)phenyl)-6-morpholino-9H-purin-9-yl)heptanamide], the concentration giving a half-maximal response (EC50) in the data set with MV-4-11 cells [1] was 500 nM; in the data set with MV-4-11 cells [4], 69 nM. The results for the Tolerability entry with HepG2 xenograft, with HuH-7 xenograft and in the data set with NCI-H460 xenograft were “well tolerated”, “well-tolerated” and “well tolerated”, respectively. The “Hyperacetylation of H3 in MV4-11 tumors” value in the data set with MV4-11 tumors is “hyperacetylation of H3 in MV4-11 tumors”. For the same compound, in [2], the “Microsomal Stability RLM, % of remaining parent compound” value came out at 57%. Also, the “maximum body weight loss vs vehicle group” value in the data set with HuH-7 xenograft is recorded as “less than 5%”. Moreover, in data set [3], the “Microsomal Stability HLM, % of remaining parent compound” value is reported as 99%. Further, the “Microsomal Stability MLM, % of remaining parent compound” value in data set [5] is reported as 99%. For the same compound, the “Hyperacetylation of histone 3 (Lys 9) and α-tubulin” value in [6] was “the hyperacetylation effect is dose-dependent”.

Consider “(N-hydroxy-7-(2-(3-(1- (hydroxyimino)ethyl)-4- methoxyphenyl)-6-morpholino-9H- purin-9-yl)heptanamide [compound 73]”, for which the half-maximal inhibitory concentration (IC50) was 2000 to 10000 nM in the data set with PC-3, below 10 nM in [7] and 500 to 2000 nM with MV-4-11.
